Legend:
[1] = molecular target: T1, human sputum leucocyte elastase (Homo sapiens, UniProt P08246); test: In vivo inhibitory activity: model of acute hemorrhagic edema in hamsters; parameters: It is a glycoprotein of 25 to 30 kDa formed from 218 amino acids; from tissue; host or cells: human sputum (purified preparation); conditions: hamster, 10 μg intratracheally 3 hours before elastase (50 units); hemoglobin in broncho-alveolar washing 3 hours after elastase
T1 sequence (P08246 30-247 limits assumed): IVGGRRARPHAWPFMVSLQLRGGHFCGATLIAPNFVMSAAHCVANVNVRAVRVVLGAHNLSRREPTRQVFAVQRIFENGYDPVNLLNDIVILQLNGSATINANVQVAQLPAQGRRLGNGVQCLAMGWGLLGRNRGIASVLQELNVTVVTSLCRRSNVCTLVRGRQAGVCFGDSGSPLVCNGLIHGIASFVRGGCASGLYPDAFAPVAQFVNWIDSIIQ
Method: In vivo inhibitory activity: model of acute hemorrhagic edema in hamsters
Tracheal instillation in hamsters of a purified preparation of human sputum leucocyte elastase leads to acute hemorrhaging which can be quantified by measuring the concentration of hemoglobin in the broncho-alveolar washing 3 hours after the elastase instillation.
The study is carried out on male hamsters weighing […] (Syrian Golden, n=10 per batch). The animals are anesthetized with pentobarbital at a dose of 40 mg/kg intraperitoneally.
The hamsters are anesthetized and the trachea is exposed surgically. The products to be tested are administered with the aid of a needle directly into the trachea in a volume of 0.1 ml at a dose of 10 μg. Human sputum leucocyte elastase is administered, 3 hours after administration of the product, intratracheally at a dose of 50 units per animal at a volume of 0.2 ml.
The animals are sacrificed with the aid of a lethal dose of pentobarbital 3 hours after instillation of elastase and a broncho-alveolar washing with physiological serum is carried out. The degree of hemorrhaging is quantified by a colorimetric method which makes it possible to quantitatively determine the hemoglobin concentration (Boehringer hemoglobin test combination).
The results are expressed in percentage of inhibition of hemorrhaging.

[2] = molecular target: T1, human sputum leucocyte elastase; test: Inhibitory activity for human leucocyte elastase in vitro; format: biochemical; parameters: It is a glycoprotein of 25 to 30 kDa formed from 218 amino acids; purchased Elastin Products Co; host or cells: human sputum (natural enzyme); conditions: methoxysuccinyl-Ala-Ala-Pro-Val paranitroanilide substrate, 15 min incubation, 37° C., pH 7.8
Method: This activity is measured by following the kinetics of hydrolysis of the substrate which leads to the release of paranitroaniline which absorbs at a wavelength of 410 nm.
Enzyme: Human sputum leucocyte elastase (Elastin Products Co.) solubilized at 1000 uI/ml of distilled water, and frozen in aliquots of 50 μl at -20° C.
Substrate: methoxysuccinyl-L-alanyl-L-alanyl-propyl-valine paranitroanilide (Sigma chimie).
Buffer: Tris 0.1M; NaCl 0.5M; pH=7.8.
10 μl of the product to be tested or of the solvent (concentrated×100)
10 μl of human sputum leucocyte elastase diluted to 1/10th
Stirring and incubation for 15 min at 37° C.
The reaction is started by addition of 10 μl of substrate.
The cell is introduced into the spectro- photometer, and the optical density is recorded as a function of time at 410 nm at 37° C.
The initial rate is measured for each product concentration (or solvent control) studied.
Percentages of inhibition with respect to the solvent control are calculated:
Percentage of inhibition=100×(control rate-rate of the product
The inhibitory concentrations 50 (IC50) are calculated from the percentages of inhibition by simple linear regression.

Row | Molecule | Inhibition (%) of hemorrhaging [1] [%] | IC50 [2] [nM]
1 | CC(C)C(NC(=O)[C@@H]1C2CCC(CC2)N1C(=O)[C@@H](NC(=O)c1ccc(C(=O)NS(=O)(=O)c2ccc(Cl)cc2)cc1)C(C)C)C(=O)C(F)(F)F (single isomer, unassigned) [Example 4] | 70 | 15
2 | CC(C)C(NC(=O)[C@@H]1C2CCC(CC2)N1C(=O)[C@@H](NC(=O)c1ccc(S(=O)(=O)NC(=O)C(C2CC2)C2CC2)cc1)C(C)C)C(=O)C(F)(F)F (stereo partly drawn) [Example 24, 4-[(Dicyclopropylmethyl)carbonylaminosulfonyl]benzoyl-(S)-Val-(S)-Abo-(R,S)-Val-CF3] | 46 | 25
3 | CC(C)C(NC(=O)[C@@H]1C[C@@H]2CCCC[C@@H]2N1C(=O)[C@@H](NC(=O)c1ccc(S(=O)(=O)NC(=O)Nc2ccc(Cl)cc2)cc1)C(C)C)C(=O)C(F)(F)F (stereo partly drawn) [Example 26, 4-(4-Chlorophenylureidosulfonyl)benzoyl-(S)-Val-(2S,3aS,7aS)-Phi-(R,S)-Val-CF3] | 64 | 31
4 | CC(=O)N[C@@H](CSC(C)(C)C)C(=O)NS(=O)(=O)c1ccc(C(=O)N[C@H](C(=O)N2C3CCC(CC3)[C@H]2C(=O)NC(C(=O)C(F)(F)F)C(C)C)C(C)C)cc1 (stereo partly drawn) [Example 18, 4-[S-tert-Butyl-N-acetyl-(S)-cysteinylaminosulfonyl]benzoyl-(S)-Val-(S)-Abo-(R,S)-Val-CF3] | 38 | 19
5 | CC(C)C(NC(=O)[C@@H]1[C@@H]2CC[C@@H](C2)N1C(=O)[C@@H](NC(=O)c1ccc(C(=O)NS(=O)(=O)c2ccc(Cl)cc2)cc1)C(C)C)C(=O)C(F)(F)F (stereo partly drawn) [Example 22, 4-(4-Chlorophenylsulfonylaminocarbonyl)benzoyl-(S)-Val-(1S,3S,4R)-Abh-(R,S)-Val-CF3] | 65 | 19
6 | 4-{[3-(3-Azabicyclo[3.3.0]octane)ureido]sulpfonyl}benzoyl-(S)-Val-(S)-Abo-(R,S)-Val-CF3 [Example 2] | 57 | 25
7 | CC(C)C(NC(=O)c1ccc(S(=O)(=O)NC(=O)Nc2ccc(Cl)cc2)cc1)C(=O)N1C2CCC(CC2)C1C(=O)NC(C(=O)C(F)(F)F)C(C)C [Example 25, 4-(4-Chlorophenylureidosulfonyl)benzoyl-(S)-Val-(S)-Abo-(R,S)-Val-CF3] | 63 | 34
8 | CC(C)C(NC(=O)[C@@H]1[C@@H]2CC[C@@H](C2)N1C(=O)[C@@H](NC(=O)c1ccc(S(=O)(=O)NC(=O)c2ccccc2C(=O)N2CCSC2)cc1)C(C)C)C(=O)C(F)(F)F (stereo partly drawn) [Example 23, 4-[2-[(1,3-Thiazolidin-3-yl)carbonyl]benzoylaminosulfonyl]benzoyl-(S)-Val-(lS,3S,4R)-Abh-(R,S)-Val-CF3] | 61 | 30

More lines, now with the values ahead:

Row | Inhibition (%) of hemorrhaging [1] [%] | IC50 [2] [nM] | Molecule
9 | 57 | 47 | CC(C)C(NC(=O)c1ccc(S(=O)(=O)NC(=O)C23CC4CC(CC(C4)C2)C3)cc1)C(=O)N1C2CCC(CC2)C1C(=O)NC(C(=O)C(F)(F)F)C(C)C [Example 28, 4-[(Adamant-1-yl)carbonylaminosulfonyl]benzoyl-(S)-Val-(S)-Abo-(R,S)-Val-CF3]
10 | 63 | 38 | CC(C)C(NC(=O)[C@@H]1C[C@@H]2CCCC[C@@H]2N1C(=O)[C@@H](NC(=O)c1ccc(S(=O)(=O)NC(=O)Cc2cc(C(C)(C)C)c(O)c(C(C)(C)C)c2)cc1)C(C)C)C(=O)C(F)(F)F (stereo partly drawn) [Example 29, 4-[(3,5-Di-tert-butyl-4-hydroxybenzyl)carbonylaminosulfonyl]benzoyl-(S)-Val-(2S,3aS,7aS)-Phi-(R,S)-Val-CF3]
11 | 38 | 29 | CC(C)C(NC(=O)[C@@H]1C[C@@H]2CCCC[C@@H]2N1C(=O)[C@@H](NC(=O)c1ccc(S(=O)(=O)NC(=O)C(C2CC2)C2CC2)cc1)C(C)C)C(=O)C(F)(F)F (stereo partly drawn) [Example 27, 4-[(Dicyclopropylmethyl)carbonylaminosulfonyl]benzoyl-(S)-Val-(2S,3aS,7aS)-Phi-(R,S)-Val-CF3]
12 | 47 | 37 | CCOCC(O)COc1cc(C(=O)NS(=O)(=O)c2ccc(C(=O)N[C@H](C(=O)N3[C@H](C(=O)NC(C(=O)C(F)(F)F)C(C)C)C[C@@H]4CCCC[C@@H]43)C(C)C)cc2)ccc1OC (stereo partly drawn) [Example 35, 4-{[4-Methoxy-3-(3-ethoxy-2-hydroxypropoxy)-benzoyl]aminosulfonyl}benzoyl-(S)-Val-(2S,3aS,7aS)-Phi-(R,S)-Val-CF3]
13 | 41 | 70 | CC(C)C(NC(=O)[C@@H]1C[C@@H]2CCCC[C@@H]2N1C(=O)[C@H](CCCCNC(=O)Cc1cc(C(C)(C)C)c(O)c(C(C)(C)C)c1)NC(=O)c1ccc(C(=O)NS(=O)(=O)c2ccc(Cl)cc2)cc1)C(=O)C(F)(F)F (stereo partly drawn) [Example 41, 4-(4-Chlorophenylsulfonylaminocarbonyl)benzoyl-[N-(3,5-di-tert-butyl-4-hydroxyphenyl)acetyl]-(S)-Lys-(2S,3aS,7aS)-Phi-(R,S)-Val-CF3]
14 | 42 | 42 | CC(C)C(NC(=O)[C@@H]1C[C@@H]2CCCC[C@@H]2N1C(=O)[C@@H](NC(=O)c1ccc(S(=O)(=O)NC(=O)c2ccc(CCN3CCC4(CC3)CNC(=O)O4)cc2)cc1)C(C)C)C(=O)C(F)(F)F (stereo partly drawn) [Example 32, 4-{4-[2-(1-Oxa-2-oxo-3,8-diazaspiro[4.5]dec-8-yl)ethyl]benzoylaminosulfonyl}benzoyl-(S)-Val-(2S,3aS,7aS)-Phi-(R,S)-Val-CF3]

From US5565429A, “Peptides derived from trifluoromethylketones” (Adir et Compagnie, priority 1992, dated 1996)
